Calls of active or inactive are those of the source. The rule behind the calls is not given here.
Experiments:
[1] = system: Pseudomonas aeruginosa; assay: Inhibition of biofilm formation in Pseudomonas aeruginosa at 100 uM measured after 48 hrs relative to control; format: functional
[2] = Inhibition of quorum sensing system in Chromobacterium violaceum ATCC 31352 assessed as reduction in violacein production at 100 uM relative to control
[3] = Inhibition of quorum sensing system in Pseudomonas aeruginosa transfected with lasB-gfp
[4] = organism: Homo sapiens; assay: Activation of protease (unknown origin); details: filed as activator

Row | SMILES | inhibition at 100 µM [1] | inhibition [2] | IC50 [3] | Activity [4] | inhibition [3]
1 | O=[N+]([O-])c1cc[n+]([O-])cc1 | 71% | 37.5% | 33 µM | Active | 
2 | FC(F)c1cc(Oc2ccccc2)ccn1 |  |  |  |  | Active
3 | N#Cc1cc[n+]([O-])cc1 |  |  |  |  | Active
4 | FC(F)c1ccncc1 |  |  |  |  | Active
5 | FC(F)c1cc(-c2ccccc2)ccn1 |  |  |  |  | Active
6 | COC(=O)c1ccncc1C(F)F |  |  |  |  | Active
7 | FC(F)c1cccnc1 |  |  |  |  | Active
8 | FC(F)c1nccc2ccccc12 |  |  |  |  | Active
9 | O=C(c1ccc(Cl)cc1)c1ccnc(C(F)F)c1 | 73% | 57% | 35 µM | Active | 
10 | FC(F)c1ccccn1 |  |  |  |  | Active
11 | FC(F)c1cc(Cc2ccc(Cl)cc2)ccn1 |  |  |  |  | Active
12 | N#Cc1ccnc(C(F)F)c1 | 85% | 66% | 19 µM | Active | 
13 | FC(F)c1ccc2ccccc2n1 |  |  |  |  | Active
14 | COC(=O)c1ccnc(C(F)F)c1 | 75% | 59% | 27 µM | Active | 
